The values that follow come from US9789114B2, “Compounds as HIF-1α inhibitors and manufacturing process thereof” (DONGGUK UNIVERSITY INDUSTRY-ACADEMIC COOPERATION FOUNDATION, priority 2011, dated 2017).

The test system of one assay is HIF-1α-mediated HRE transcriptional activity. In words: Assay for inhibition of HIF-1α-mediated transcriptional activity (HRE reporter assay). Type of assay: cell-based, human. The following applies: HCT116 cells, 12 hours under hypoxia (1% O2). Here is the method:
<Experiment 1> Assay for Inhibition of HIF-1α-Mediated Transcriptional Activity (HRE Reporter Assay)
The compounds can be developed as anti-cancer drugs, because the compounds inhibiting HIF-1α-mediated HRE transcriptional activity induced by hypoxia can suppress the growth and metastasis of cancer.
Inhibitory effects of the compounds according to the present invention, from Formula I-1 to I-42, on HIF-1α-mediated transcriptional activity were evaluated using this assay. pGL3-HRE-luciferase vector was constructed as follows. Six copies of HRE (Hypoxia Responsive Element, 5′-ACGTG-3′) from human VEGF genes were inserted into the multi-cloning site of a pGL3-basic vector (Promega). A luciferase gene was used as a reporter gene.
In detail, HCT116(ATCC #CCL-247) human colon cancer cells were seeded in 48-well cell culture plates. The cells were co-transfected with 25 ng of pGL3-HRE-luciferase and 2.5 ng of Renila control vectors using Polyfect reagent next day. After 24 hours of incubation, the cells were incubated for an additional 4 hours with replaced cell culture media. The cells were treated with various concentrations (0, 1, 3, 5, 10, and 20 μM) of the above compounds according to the present invention and incubated for 12 hours under hypoxia (1% O2, 94% N2, and 5% CO2). The luciferase assay was performed using a dual-luciferase reporter assay system (Promega). After cell lysate preparation with RIPA buffer, induced luciferase activity under hypoxic conditions was determined to examine inhibitory effects of the compounds according to the present invention, from Formula I-1 to I-42, on HIF-1α-mediated transcriptional activity.
A general note: A reporter such as luciferase makes a cellular process visible.
`CN1CCN(C(=O)COc2ccc(C34CC5CC(CC(C5)C3)C4)cc2)CC1.Cl` [Compound I-4, 4-(2-(4-(Adamantan-1-yl)phenoxy)acetyl)-1-methylpiperazin-1-ium chloride]: the “Inhibitory activity against HIF-1α (10 μM)” value was “A (A(76˜100%))”.

The assay is the same for the next values; noted with them: Homo sapiens, HCT-116, HCT116 cells, 12 hours under hypoxia (1% O2), read-out: Inhibitory activity against HIF-1α (10 μM).
As to `CN(C)C(=O)COc1ccc(C23CC4CC(CC(C4)C2)C3)cc1` [Compound I-1, 2-(4-(Adamantan-1-yl)phenoxy)-N,N-dimethylacetamide], the inhibition at 10 µM fell in the range of 51 to 75%.
With `O=C(COc1ccc(C23CC4CC(CC(C4)C2)C3)cc1)NC1CC1` [Compound I-2, 2-(4-(Adamantan-1-yl)phenoxy)-N-cyclopropylacetamide], the inhibition at 10 µM is 76 to 100%.
In the case of `Cc1cc(C23CC4CC(CC(C4)C2)C3)ccc1OCC(=O)N1CCN(C)CC1` [Compound I-5, 2-(4-(Adamantan-1-yl)-2-methylphenoxy)-1-(4-methylpiperazin-1-yl)ethanone], the inhibition at 10 µM was 76 to 100%.
Same read-out and setting: to `Cc1cc(C23CC4CC(CC(C4)C2)C3)ccc1OCC(=O)NCCN(C)C` [Compound I-7, 2-(4-(Adamantan-1-yl)-2-methylphenoxy)-N-(2-(dimethylamino)ethyl)acetamide] belongs 51 to 75%; to `O=C(CCOc1ccc(C23CC4CC(CC(C4)C2)C3)cc1)N1CCOCC1` [Compound I-9, 3-(4-(Adamantan-1-yl)phenoxy)-1-morpholinopropan-1-one], 76 to 100%; to `CN(C)CCNC(=O)CCOc1ccc(C23CC4CC(CC(C4)C2)C3)cc1` [Compound I-10, 3-(4-(Adamantan-1-yl)phenoxy)-N-(2-(dimethylamino)ethyl)propanamide], 26 to 50%.
For `Cc1cc(C23CC4CC(CC(C4)C2)C3)ccc1OCCC(=O)N1CCN(C)CC1` [Compound I-11, 3-(4-(Adamantan-1-yl)-2-methylphenoxy)-1-(4-methylpiperazin-1-yl)propan-1-one], the inhibition at 10 µM fell in the range of 76 to 100%.
Take `Cc1cc(C23CC4CC(CC(C4)C2)C3)ccc1OCCC(=O)N1CCOCC1` [Compound I-12, 3-(4-(Adamantan-1-yl)-2-methylphenoxy)-1-morpholinopropan-1-one]: the inhibition at 10 µM lay within 76 to 100%.
Consider `Cc1cc(C23CC4CC(CC(C4)C2)C3)ccc1OCCC(=O)NCCN(C)C` [Compound I-13, 3-(4-(Adamantan-1-yl)-2-methylphenoxy)-N-(2-(dimethylamino)ethyl)propanamide], for which the inhibition at 10 µM fell in the range of 51 to 75%.
Take `CN1CCN(C(=O)CCCOc2ccc(C34CC5CC(CC(C5)C3)C4)cc2)CC1` [Compound I-14, 4-(4-(Adamantan-1-yl)phenoxy)-1-(4-methylpiperazin-1-yl)butan-1-one]: the inhibition at 10 µM is 51 to 75%.
As for `C[N+]1(C)CCN(C(=O)COc2ccc(C34CC5CC(CC(C5)C3)C4)cc2)CC1` [Compound I-15, 4-(2-(4-(Adamantan-1-yl)phenoxy)acetyl)-1,1-dimethylpiperazine-1-ium iodide], the inhibition at 10 µM fell in the range of 26 to 50%.
The same measure, in the same setting: to `Cc1cc(C23CC4CC(CC(C4)C2)C3)ccc1OCC(=O)NCC[N+](C)(C)C` [Compound I-17, 2-(2-(4-(Adamantan-1-yl)-2-methylphenoxy)acetamido)-N,N,N-trimethylethanaminium iodide] belongs 26 to 50%.
On to `C[N+]1(C)CCN(C(=O)CCOc2ccc(C34CC5CC(CC(C5)C3)C4)cc2)CC1` [Compound I-18, 4-(3-(4-(Adamantan-1-yl)phenoxy)propanoyl)-1,1-dimethylpiperazin-1-ium iodide], for which the inhibition at 10 µM is 26 to 50%.
`Cc1cc(C23CC4CC(CC(C4)C2)C3)ccc1OCCC(=O)N1CC[N+](C)(C)CC1` [Compound I-20, 4-(3-(4-(Adamantan-1-yl)-2-methylphenoxy)propanoyl)-1,1-dimethylpiperazin-1-ium iodide]: the inhibition at 10 µM is 76 to 100%.
Take `Cc1cc(C23CC4CC(CC(C4)C2)C3)ccc1OCCC(=O)NCC[N+](C)(C)C` [Compound I-21, 2-(3-(4-(Adamantan-1-yl)-2-methylphenoxy)propanamido)-N,N,N-trimethylethanaminium iodide]: the inhibition at 10 µM is 26 to 50%.
As to `CN1CCN(C(=O)COc2ccc(C34CC5CC(CC(C5)C3)C4)cc2F)CC1` [Compound I-25, 2-(4-(Adamantan-1-yl)-2-fluorophenoxy)-1-(4-methylpiperazin-1-yl)ethanone], the inhibition at 10 µM lay in the range of 51 to 75%.
Consider `O=C(COc1ccc(C23CC4CC(CC(C4)C2)C3)cc1)NCc1ccco1` [Compound I-26, 2-(4-(Adamantan-1-yl)phenoxy)-N-(furan-2-ylmethyl)acetamide], for which the inhibition at 10 µM was 76 to 100%.
Same read-out and setting: to `O=C(COc1ccc(C23CC4CC(CC(C4)C2)C3)cc1)N1CCN(Cc2ccc(C(F)(F)F)cc2)CC1` [Compound I-27, 2-(4-(Adamantan-1-yl)phenoxy)-1-(4-(4-(trifluoromethyl)benzyl)piperazin-1-yl)ethanone] belongs 76 to 100%; to `CC(C)N1CCN(C(=O)COc2ccc(C34CC5CC(CC(C5)C3)C4)cc2)CC1` [Compound I-28, 2-(4-(Adamantan-1-yl)phenoxy)-1-(4-isopropylpiperazin-1-yl)ethanone], 51 to 75%; to `CC(C)(C)OC(=O)N1CCN(C(=O)COc2ccc(C34CC5CC(CC(C5)C3)C4)cc2)CC1` [Compound I-29, tert-Butyl 4-(2-(4-(adamantan-1-yl)phenoxy)acetyl)piperazine-1-carboxylate], 51 to 75%.
Still for that read-out and setting: to `O=C(COc1ccc(C23CC4CC(CC(C4)C2)C3)cc1)N1CCNCC1` [Compound I-30, 2-(4-(Adamantan-1-yl)phenoxy)-1-(piperazin-1-yl)ethanone] belongs 76 to 100%; to `C[C@H]1CN(C(=O)OC(C)(C)C)CCN1C(=O)COc1ccc(C23CC4CC(CC(C4)C2)C3)cc1` [Compound I-31, (S)-tert-Butyl 4-(2-(4-(adamantan-1-yl)phenoxy)acetyl)-3-methylpiperazine-1-carboxylate], 76 to 100%; to `C[C@H]1CNCCN1C(=O)COc1ccc(C23CC4CC(CC(C4)C2)C3)cc1` [Compound I-32, 2-(4-(Adamantan-1-yl)phenoxy)-1-((S)-2-methylpiperazin-1-yl)ethanone], 76 to 100%.
Turning to `C[C@@H]1CN(C(=O)OC(C)(C)C)CCN1C(=O)COc1ccc(C23CC4CC(CC(C4)C2)C3)cc1` [Compound I-33, (R)-tert-Butyl 4-(2-(4-(Adamantan-1-yl)phenoxy)acetyl)-3-methylpiperazine-1-carboxylate], the inhibition at 10 µM was 76 to 100%.
Same read-out and setting: to `C[C@@H]1CNCCN1C(=O)COc1ccc(C23CC4CC(CC(C4)C2)C3)cc1` [Compound I-34, 2-(4-(Adamantan-1-yl)phenoxy)-1-((R)-2-methylpiperazin-1-yl)ethanone] belongs 51 to 75%; to `O=C(COc1ccc(C23CC4CC(CC(C4)C2)C3)cc1)N1CCN(CCO)CC1` [Compound I-35, 2-(4-(Adamantan-1-yl)phenoxy)-1-(4-(2-hydroxyethyl)piperazin-1-yl)ethanone], 26 to 50%.
As for `C#CCN1CCN(C(=O)COc2ccc(C34CC5CC(CC(C5)C3)C4)cc2)CC1` [Compound I-36, 2-(4-(Adamantan-1-yl)phenoxy)-1-(4-(prop-2-yn-1-yl)piperazin-1-yl)ethanone], the inhibition at 10 µM fell in the range of 51 to 75%.
For the compound `CN1CCN(c2ccc(NC(=O)COc3ccc(C45CC6CC(CC(C6)C4)C5)cc3)cc2)CC1` [Compound I-37, 2-(4-(Adamantan-1-yl)phenoxy)-N-(4-(4-methylpiperazin-1-yl)phenyl)acetamide], the inhibition at 10 µM is 1 to 25%.
Same read-out and setting: to `O=C(COc1ccc(C23CC4CC(CC(C4)C2)C3)cc1)Nc1ccc(N2CCS(=O)(=O)CC2)cc1` [Compound I-38, 2-(4-(Adamantan-1-yl)phenoxy)-N-(4-(1,1-dioxidothiomorpholino)phenyl)acetamide] belongs 51 to 75%; to `O=C(COc1ccc(C23CC4CC(CC(C4)C2)C3)cc1)N1CCn2c(nnc2C(F)(F)F)C1` [Compound I-39, 2-(4-(Adamantan-1-yl)phenoxy)-1-(3-(trifluoromethyl)-5,6-dihydro-[1,2,4]triazolo[4,3-a]pyrazin-7(8H)-yl)ethanone], 26 to 50%; to `O=C(COc1ccc(C23CC4CC(CC(C4)C2)C3)cc1)NC12CC3CC(CC(C3)C1)C2` [Compound I-40, N-(adamantan-1-yl)-2-(4-(adamantan-1-yl)phenoxy)acetamide], 1 to 25%.
Still for that read-out and setting: to `O=C(COc1ccc(C23CC4CC(CC(C4)C2)C3)cc1)NC12CC3CC(CC(O)(C3)C1)C2` [Compound I-41, 2-(4-(Adamantan-1-yl)phenoxy)-N-(3-hydroxyadamantan-1-yl)acetamide] belongs 76 to 100%; to `CN1CCN(C(=O)COc2ccc(C34CC5CC(CC(C5)C3)C4)cc2Cl)CC1` [Compound I-42, 2-(4-(Adamantan-1-yl)-2-chlorophenoxy)-1-(4-methylpiperazin-1-yl)ethanone], 51 to 75%.
